This note sets out measurements from ChEMBL document CHEMBL1134673, “Modeling of poly(ADP-ribose)polymerase (PARP) inhibitors. Docking of ligands and quantitative structure-activity relationship analysis” (J Med Chem, 2001).

pIC50: −log10 of the molar value.

Target in one test: not listed separately
Kind of test: poly(ADP-ribose)-polymerase (PARP) inhibition.
`COc1cccc2c(O)nc(-c3ccc(C#N)cc3)nc12`: the pIC50 is 5.87.

Compound `COc1cccc2c(O)nc(-c3ccc(C(F)(F)F)cc3)nc12` gave a pIC50 of 4.41.

Compound `Cc1cccc2c(O)nc(-c3ccccc3)nc12` had a pIC50 of 6.06. Compound `COc1cccc2c(O)nc(-c3ccc([N+](=O)[O-])cc3)nc12` showed a negative-log IC50 (pIC50) of 6.07. `COc1ccc(-c2nc(O)c3cccc(C)c3n2)cc1` showed a negative logarithm of the IC50 (pIC50) of 6.72. Turning to `COc1cccc2c(O)nc(-c3ccccc3)nc12`, the pIC50 is 5.38. The same measure, in the same setting: the result for `Cc1cccc2c(O)nc(-c3ccc(O)cc3)nc12` reads 6.66; that for `Cc1cccc2c(O)nc(-c3ccc(N)cc3)nc12`, 6.36. Compound `Nc1ccc(-c2nc(O)c3cccc(O)c3n2)cc1` showed a negative-log IC50 (pIC50) of 6.28.

Turning to `Cc1cccc2c(O)nc(-c3ccc(C#N)cc3)nc12`, the pIC50 is 6.57.

For `O=[N+]([O-])c1ccc(-c2nc(O)c3cccc(O)c3n2)cc1`, the pIC50 is 6.64.

For another test, the target named is Poly [ADP-ribose] polymerase 1 (Homo sapiens, UniProt P09874).
Chain of Poly [ADP-ribose] polymerase 1 (P09874 whole entry): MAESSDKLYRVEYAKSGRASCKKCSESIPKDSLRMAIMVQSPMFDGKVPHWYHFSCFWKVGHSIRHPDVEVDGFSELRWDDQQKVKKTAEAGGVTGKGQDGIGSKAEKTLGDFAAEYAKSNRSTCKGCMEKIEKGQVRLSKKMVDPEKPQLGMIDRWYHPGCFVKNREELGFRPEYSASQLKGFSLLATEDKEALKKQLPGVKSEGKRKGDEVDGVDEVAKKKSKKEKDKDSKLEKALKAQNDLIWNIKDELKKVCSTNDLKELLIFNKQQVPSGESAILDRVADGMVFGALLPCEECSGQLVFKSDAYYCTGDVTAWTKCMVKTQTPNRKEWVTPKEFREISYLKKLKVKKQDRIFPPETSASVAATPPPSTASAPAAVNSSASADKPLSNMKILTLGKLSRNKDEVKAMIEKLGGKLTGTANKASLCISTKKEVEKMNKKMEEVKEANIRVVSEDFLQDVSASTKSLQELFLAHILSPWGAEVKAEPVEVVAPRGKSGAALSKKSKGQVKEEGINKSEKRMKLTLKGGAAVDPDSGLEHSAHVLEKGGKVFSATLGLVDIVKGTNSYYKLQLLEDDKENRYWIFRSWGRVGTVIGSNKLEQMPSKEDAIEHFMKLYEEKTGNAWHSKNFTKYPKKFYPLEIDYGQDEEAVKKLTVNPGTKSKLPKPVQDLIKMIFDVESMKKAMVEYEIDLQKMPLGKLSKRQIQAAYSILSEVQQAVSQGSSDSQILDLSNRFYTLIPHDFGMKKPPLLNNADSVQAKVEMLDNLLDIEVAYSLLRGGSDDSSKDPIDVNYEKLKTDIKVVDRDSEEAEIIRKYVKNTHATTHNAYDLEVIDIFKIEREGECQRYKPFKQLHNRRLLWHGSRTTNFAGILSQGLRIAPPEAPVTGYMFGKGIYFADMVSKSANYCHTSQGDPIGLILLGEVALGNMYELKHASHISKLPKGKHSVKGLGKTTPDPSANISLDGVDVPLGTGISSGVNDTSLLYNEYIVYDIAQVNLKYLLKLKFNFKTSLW
Description: The compound was tested for poly(ADP-ribose)-polymerase (PARP) inhibition
`O=c1[nH]ncc2ccccc12` [PHTHALAZINONE] had a pIC50 of 4.92.

On to `Cc1cccc(C(N)=O)c1`, for which the negative-log IC50 (pIC50) is 4.72.

The compound `NC(=O)c1ccc(Cl)cc1` had a pIC50 of 3.52. The same measure, in the same setting: next, `NC(=O)c1ccc(F)cc1`: 3.70; `O=c1[nH]cnc2ccccc12` [QUINAZOLINONE]: 5.02. Turning to `O=c1[nH]c2ccccc2c2ccccc12`, the negative logarithm of the IC50 (pIC50) is 6.52. Compound `NC(=O)c1cccc(O)c1` showed a pIC50 of 5.04. In turn, `O=c1[nH]c2ccc([N+](=O)[O-])cc2c2ccccc12` had a pIC50 of 6.46.

For the compound `NC(=O)c1ccccc1` [BENZAMIDE], the pIC50 was 4.66.

`NC(=O)c1cccc([N+](=O)[O-])c1` had a pIC50 of 3.80. Compound `NC(=O)c1ccc(Br)cc1` showed a pIC50 of 2.66. With `NC(=O)c1ccc(O)cc1`, the negative logarithm of the IC50 (pIC50) is 3.55. Same read-out and setting: the result for `NC(=O)c1cccc(F)c1` reads 4.70.

The compound `CN(C)c1cccc(C(N)=O)c1` showed a pIC50 of 3.92.

The compound `NC(=O)c1ccc(N)cc1` had a negative logarithm of the IC50 (pIC50) of 2.74.
